{"source": "ChEMBL document CHEMBL4024763", "about": "“Discovery and Optimization of Pyrrolopyrimidine Inhibitors of Interleukin-1 Receptor Associated Kinase 4 (IRAK4) for the Treatment of Mutant MYD88L265P Diffuse Large B-Cell Lymphoma” (J Med Chem, 2017)", "key": {"[1]": {"assay": "Lipophilicity, log D of the compound at pH 7.4 by shake flask method", "format": "physicochemical", "conditions": "buffer"}, "[2]": {"assay": "Drug excretion in bile duct cannulated rat bile at 2 mg/kg, iv", "format": "ADME, organism-based", "conditions": "read-out: Drug excretion"}, "[3]": {"assay": "Drug excretion in bile duct cannulated rat urine at 2 mg/kg, iv", "format": "ADME, organism-based", "conditions": "read-out: Drug excretion"}, "[4]": {"assay": "Aqueous solubility of the compound at pH 7.4 at 25 degC", "format": "physicochemical", "conditions": "buffer"}}, "data": [{"smiles": "CN(C)[C@H]1CC[C@H](Nc2ncnc3sc4c(c23)CCC4)CC1", "values": [{"measurement": "logD", "setting": "[1]; read-out: logD", "value": 1.2}]}, {"smiles": "CN(C)[C@H]1CC[C@H](Nc2ncnc3[nH]cc(C4CCCOC4)c23)CC1", "note": "(some centres not stated)", "values": [{"measurement": "logD", "setting": "[1]; read-out: logD", "value": 0.3}]}, {"smiles": "CN(C)[C@H]1CC[C@H](Nc2ncnc3[nH]cc(C(F)(F)F)c23)CC1", "values": [{"measurement": "logD", "setting": "[1]; read-out: logD", "value": 1.5}]}, {"smiles": "c1nc(N[C@H]2CC[C@H](N3CCOCC3)CC2)c2c(C3CCOCC3)c[nH]c2n1", "values": [{"measurement": "dose excreted", "setting": "[2]", "value": 2, "unit": "%"}, {"measurement": "dose excreted", "setting": "[3]", "value": 27, "unit": "%"}]}, {"smiles": "c1nc(O[C@H]2CC[C@H](N3CCOCC3)CC2)c2c(C3CCOCC3)c[nH]c2n1", "values": [{"measurement": "logD", "setting": "[1]; read-out: logD", "value": 2.4}]}, {"smiles": "Cc1sc2ncnc(N[C@H]3CC[C@H](N(C)C)CC3)c2c1C", "values": [{"measurement": "logD", "setting": "[1]; read-out: logD", "value": 0.7}]}, {"smiles": "CN(C)[C@H]1CC[C@H](N(C)c2ncnc3[nH]cc(C4CCOCC4)c23)CC1", "values": [{"measurement": "logD", "setting": "[1]; read-out: logD", "value": 0.6}]}, {"smiles": "CCc1c[nH]c2ncnc(N[C@H]3CC[C@H](N(C)C)CC3)c12", "values": [{"measurement": "logD", "setting": "[1]; read-out: logD", "value": 0.6}]}, {"smiles": "CN(C)[C@H]1CC[C@H](Nc2ncnc3[nH]cc(C4CCC4)c23)CC1", "values": [{"measurement": "logD", "setting": "[1]; read-out: logD", "value": 1.5}]}, {"smiles": "N#Cc1cnc2[nH]cc(C3CCOCC3)c2c1N[C@H]1CC[C@H](N2CCOCC2)CC1", "values": [{"measurement": "logD", "setting": "[1]; read-out: logD", "value": 2.3}]}, {"smiles": "Cc1csc2ncnc(N[C@H]3CC[C@H](N(C)C)CC3)c12", "values": [{"measurement": "logD", "setting": "[1]; read-out: logD", "value": 0.3}]}, {"smiles": "Cc1cc2c(N[C@H]3CC[C@H](N(C)C)CC3)ncnc2[nH]1", "values": [{"measurement": "logD", "setting": "[1]; read-out: logD", "value": -0.2}]}, {"smiles": "c1nc(S[C@H]2CC[C@H](N3CCOCC3)CC2)c2c(C3CCOCC3)c[nH]c2n1", "values": [{"measurement": "solubility", "setting": "[4]", "value": 5, "unit": "µM"}, {"measurement": "logD", "setting": "[1]; read-out: logD", "value": 3}]}, {"smiles": "CN(C)[C@H]1CC[C@H](Nc2ncnc3[nH]c4c(c23)CCC4)CC1", "values": [{"measurement": "logD", "setting": "[1]; read-out: logD", "value": 0.5}]}, {"smiles": "CN(C)[C@H]1CC[C@H](Nc2ncnc3[nH]cc(C4CC4)c23)CC1", "values": [{"measurement": "logD", "setting": "[1]; read-out: logD", "value": 0.9}]}, {"smiles": "CN(C)[C@H]1CC[C@H](Nc2ncnc3[nH]ccc23)CC1", "values": [{"measurement": "logD", "setting": "[1]; read-out: logD", "value": -0.6}]}, {"smiles": "Cc1cc2c(N[C@H]3CC[C@H](N(C)C)CC3)ncnc2s1", "values": [{"measurement": "logD", "setting": "[1]; read-out: logD", "value": 0.6}]}, {"smiles": "CN(C)[C@H]1CC[C@H](Oc2ncnc3[nH]cc(C4CCOCC4)c23)CC1", "values": [{"measurement": "logD", "setting": "[1]; read-out: logD", "value": 1.2}]}, {"smiles": "CN(C)[C@H]1CC[C@H](Nc2ncnc3[nH]cc(C4CCCC4)c23)CC1", "values": [{"measurement": "logD", "setting": "[1]; read-out: logD", "value": 1.7}]}, {"smiles": "CN(C)[C@H]1CC[C@H](Nc2ncnc3sccc23)CC1", "values": [{"measurement": "logD", "setting": "[1]; read-out: logD", "value": 0.1}]}, {"smiles": "c1cc(N[C@H]2CC[C@H](N3CCOCC3)CC2)c2c(C3CCOCC3)c[nH]c2n1", "values": [{"measurement": "logD", "setting": "[1]; read-out: logD", "value": 1.7}]}, {"smiles": "Cc1[nH]c2ncnc(N[C@H]3CC[C@H](N(C)C)CC3)c2c1C", "values": [{"measurement": "logD", "setting": "[1]; read-out: logD", "value": 0.6}]}, {"smiles": "CN(C)[C@H]1CC[C@H](Nc2ncnc3[nH]cc(C4CCCO4)c23)CC1", "note": "(stereo in doubt; 18a)", "values": [{"measurement": "logD", "setting": "[1]; read-out: logD", "value": 0.4}]}, {"smiles": "CN(C)[C@H]1CC[C@H](Nc2ncnc3[nH]cc(C4CCCO4)c23)CC1", "note": "(stereo in doubt; 18b)", "values": [{"measurement": "logD", "setting": "[1]", "value": 0.3}]}, {"smiles": "CN(C)[C@H]1CC[C@H](Nc2ncnc3[nH]cc(C4CCOC4)c23)CC1", "note": "(stereo in doubt; 19a)", "values": [{"measurement": "logD", "setting": "[1]; read-out: logD", "value": 0.1}]}]}
